Data on 15 compounds can be found in patent publication US10669290B2, “Beta-lactamase inhibitors” (priority 2012, dated 2020).

Like-named read-outs stand apart in the source and are kept apart here.

What all share (assay type): cell-based
One assay concerns K.P. A-1797 KPC-2 VIM-4. The experiment in a line: Broth microdilution MIC, K. pneumoniae A-1797. The conditions noted are these: Klebsiella pneumoniae; fixed meropenem 4 μg/mL, CAMHB, 16-20 hours 37° C.; read-out: MIC of exemplary compounds in presence of fixed β-lactams, Fixed Mero, K.P. A-1797 KPC-2 VIM-4. From the text: (§1) To determine the ability of test compounds to potentiate the inhibition of the growth of bacterial strains that produce beta-lactamase enzymes, classic cell based broth microdilution MIC assays were employed. Six bacteria strains producing beta-lactamase enzymes were used: E. coli expressing the Class A Extended Spectrum Beta-Lactamase (ESBL) CTX-M-15, E. cloacae expressing the Class C P99, K. pneumoniae expressing the Class A carbapenemase KPC-2, P. aeruginosa expressing the Class B carbapenemase VIM-2, K. pneumoniae expressing the class A carbapenemase KPC-2 and the class B carbapenemase VIM-4, and S. aureus producing the Class A penicillinase PC-1. The assay was conducted in Cation Adjusted Mueller Hinton Broth (CAMHB, BD #212322, BD Diagnostic Systems, Sparks, Md.). Bacteria strains were grown for 3-5 hours in CAMBH broth. Test compounds were added to a microtiter plate in 2-fold serial dilutions in CAMHB in a final concentration range of 32 μg/mL to 0.25 μg/ml. An overlay of CAMHB containing a Beta-lactam was added to the compounds at a final static concentration of 4 μg/ml. […] In addition to the titration of test compounds the MICs of a panel of control beta-lactams is also tested to ensure the strains are behaving consistently from test to test. Once the test compound and antibiotics are added the plates can be inoculated according to CLSI broth microdilution method. After inoculation the plates are incubated for 16-20 hours at 37° C. then the Minimal Inhibitory Concentration (MIC) of the test compound is determined visually.
(§2) Using the methodology described above in EXAMPLE III, exemplary compounds for Formula I or Formula Ia were evaluated for their ability to inhibit the growth of β-lactamase producing bacteria in the presence of a β-lactam antibiotic.
A general note: Broth dilution looks for growth in wells or tubes with falling amounts of substance.

A further assay relates to S. aureus MSSA-7 PC-1. Description: Broth microdilution MIC, S. aureus MSSA-7. The conditions noted are these: Staphylococcus aureus, fixed piperacillin 4 μg/mL, CAMHB, 16-20 hours 37° C., read-out: MIC of exemplary compounds in presence of fixed β-lactams, Fixed Pip, S. aureus MSSA-7 PC-1.
From the text: as §1, §2

The test system of another assay is E. cl 144200 p99 AmpC. The experiment in a line: Broth microdilution MIC, E. cloacae 144200. The settings on record: Enterobacter cloacae.
From the text: as §1, §2

The test system of another assay is P. aerug. Ps296 VIM-2. Description: Broth microdilution MIC, P. aeruginosa Ps296. The conditions noted are these: Pseudomonas aeruginosa; fixed meropenem 4 μg/mL, CAMHB, 16-20 hours 37° C.; read-out: MIC of exemplary compounds in presence of fixed β-lactams, Fixed Mero, P. aerug. Ps296 VIM-2.
From the text: as §1, §2

In another assay the test system is E. coli ESBL4 CTX-M-15. Description: Broth microdilution MIC, E. coli ESBL4. The conditions noted are these: Escherichia coli.
From the text: as §1, §2

Another assay concerns K.P. 156319 KPC-3. Description: Broth microdilution MIC, K. pneumoniae 156319. The settings on record: Klebsiella pneumoniae; fixed meropenem 4 μg/mL, CAMHB, 16-20 hours 37° C.; read-out: MIC of exemplary compounds in presence of fixed β-lactams, Fixed Mero, K.P. 156319 KPC-3.
The mark [1] stands for this setting: fixed ceftazidime 4 μg/mL, CAMHB, 16-20 hours 37° C., read-out: MIC of exemplary compounds in presence of fixed β-lactams, Fixed CAZ, E. cl 144200 p99 AmpC.
Setting [2] is: ESBL4CTXM15, fixed ceftazidime 4 μg/mL, CAMHB, 16-20 hours 37° C., read-out: MIC of exemplary compounds in presence of fixed β-lactams, Fixed CAZ, E. coli ESBL4 CTX-M-15.

As a reminder, the MIC is the least concentration at which growth counts as inhibited. As to `N[C@@H](CO)CN[C@H]1CC[C@H](CC(=O)N[C@H]2Cc3cccc(C(=O)O)c3OB2O)CC1` [Example 65, (R)-3-(2-(trans-4-((R)-2-amino-3-hydroxypropylamino)cyclohexyl)acetamido)-2-hydroxy-3,4-dihydro-2H-benzol[e][1,2]oxaborinine-8-carboxylic acid], the MIC with K.P. A-1797 KPC-2 VIM-4 is < 4 µg/mL; in the assay with S. aureus MSSA-7 PC-1, < 4 µg/mL; with E. cl 144200 p99 AmpC (setting [1]), < 4 µg/mL; in the assay on P. aerug. Ps296 VIM-2, 8 to 32 µg/mL; in the assay on E. coli ESBL4 CTX-M-15 (setting [2]), < 4 µg/mL; in the assay on K.P. 156319 KPC-3, < 4 µg/mL.
For `CC(C)NCCN[C@H]1CC[C@H](CC(=O)N[C@H]2Cc3cccc(C(=O)O)c3OB2O)CC1` [Example 71, (R)-2-hydroxy-3-(2-(trans-4-(2-(isopropylamino)ethylamino)cyclohexyl)acetamido)-3,4-dihydro-2H-benzo[e][1,2]oxaborinine-8-carboxylic acid], the MIC in the assay with K.P. A-1797 KPC-2 VIM-4, with S. aureus MSSA-7 PC-1, in the assay on E. cl 144200 p99 AmpC (setting [1]), with P. aerug. Ps296 VIM-2, with E. coli ESBL4 CTX-M-15 (setting [2]) and in the assay with K.P. 156319 KPC-3 was < 4 µg/mL in each case.
Regarding `O=C(C[C@H]1CC[C@H](NCCNCCO)CC1)N[C@H]1Cc2cccc(C(=O)O)c2OB1O` [Example 61, (R)-2-hydroxy-3-(2-(trans-4-(2-(2-hydroxyethylamino)ethylamino)cyclohexyl)acetamido)-3,4-dihydro-2H-benzo[e][1,2]oxaborinine-8-carboxylic acid], the MIC in the assay with K.P. A-1797 KPC-2 VIM-4, in the assay on S. aureus MSSA-7 PC-1, with E. cl 144200 p99 AmpC (setting [1]), in the assay on P. aerug. Ps296 VIM-2, with E. coli ESBL4 CTX-M-15 (setting [2]) and in the assay with K.P. 156319 KPC-3 was < 4 µg/mL each time.
For the compound `NCCCN[C@H]1CC[C@H](CC(=O)N[C@H]2Cc3cccc(C(=O)O)c3OB2O)CC1` [Example 60, (R)-3-(2-(trans-4-(3-aminopropylamino)cyclohexyl)acetamido)-2-hydroxy-3,4-dihydro-2H-benzo[e][1,2]oxaborinine-8-carboxylic acid], the MIC in the assay on K.P. A-1797 KPC-2 VIM-4, with S. aureus MSSA-7 PC-1, with E. cl 144200 p99 AmpC (setting [1]), in the assay on P. aerug. Ps296 VIM-2, with E. coli ESBL4 CTX-M-15 (setting [2]) and in the assay on K.P. 156319 KPC-3 was < 4 µg/mL each time.
In the case of `CN(C)[C@H]1CC[C@H](CC(=O)N[C@H]2Cc3cccc(C(=O)O)c3OB2O)CC1` [Example 14, (R)-3-(2-(trans-4-(dimethylamino)cyclohexyl)acetamido)-2-hydroxy-3,4-dihydro-2H-benzo[e][1,2]oxaborinine-8-carboxylic acid], the MIC with K.P. A-1797 KPC-2 VIM-4 is 8 to 32 µg/mL; in the assay on S. aureus MSSA-7 PC-1, < 4 µg/mL; with E. cl 144200 p99 AmpC (setting [1]) it was < 4 µg/mL; in the assay on P. aerug. Ps296 VIM-2 it was > 32 µg/mL; in the assay with E. coli ESBL4 CTX-M-15 (setting [2]), < 4 µg/mL; with K.P. 156319 KPC-3, < 4 µg/mL.
`O=C(C[C@H]1CC[C@H](NCCNCC2CC2)CC1)N[C@H]1Cc2cccc(C(=O)O)c2OB1O` [Example 74, (R)-3-(2-(trans-4-(2-(cyclopropylmethylamino)ethylamino)cyclohexyl)acetamido)-2-hydroxy-3,4-dihydro-2H-benzo[e][1,2]oxaborinine-8-carboxylic acid]: the MIC in the assay with K.P. A-1797 KPC-2 VIM-4, in the assay with S. aureus MSSA-7 PC-1, with E. cl 144200 p99 AmpC (setting [1]), in the assay with P. aerug. Ps296 VIM-2, in the assay on E. coli ESBL4 CTX-M-15 (setting [2]) and in the assay on K.P. 156319 KPC-3 was < 4 µg/mL throughout.
`N[C@H]1CC[C@H](CCC(=O)N[C@H]2Cc3cccc(C(=O)O)c3OB2O)CC1` [Example 21, (R)-3-(3-(trans-4-aminocyclohexyl)propanamido)-2-hydroxy-3,4-dihydro-2H-benzo[e][1,2]oxaborinine-8-carboxylic acid]: the minimal inhibitory concentration (MIC) in the assay on K.P. A-1797 KPC-2 VIM-4 is > 32 µg/mL; with S. aureus MSSA-7 PC-1, < 4 µg/mL; in the assay on E. cl 144200 p99 AmpC (setting [1]) it was < 4 µg/mL; in the assay on P. aerug. Ps296 VIM-2, 8 to 32 µg/mL; with E. coli ESBL4 CTX-M-15 (setting [2]) it was < 4 µg/mL; in the assay with K.P. 156319 KPC-3 it was < 4 µg/mL.
On to `NC1CCC(O)(CC(=O)N[C@H]2Cc3cccc(C(=O)O)c3OB2O)CC1` (stereo partly drawn) [Example 44, 3-[2-(4-Amino-1-hydroxy-cyclohexyl)-acetylamino]-2-hydroxy-3,4-dihydro-2H-benzo[e][1,2]oxaborinine-8-carboxylic acid], for which the MIC with K.P. A-1797 KPC-2 VIM-4 was < 4 µg/mL; in the assay on S. aureus MSSA-7 PC-1 it was 8 to 32 µg/mL; in the assay with E. cl 144200 p99 AmpC (setting [1]), < 4 µg/mL; in the assay on P. aerug. Ps296 VIM-2, 8 to 32 µg/mL; with E. coli ESBL4 CTX-M-15 (setting [2]), < 4 µg/mL; in the assay with K.P. 156319 KPC-3 it was < 4 µg/mL.
On to `CC(C)(O/N=C(\C(=O)N[C@@H]1C(=O)N2C(C(=O)[O-])=C(C[n+]3ccccc3)CS[C@H]12)c1csc(N)n1)C(=O)O` [Ceftazidime, reference compound], for which the MIC with E. cl 144200 p99 AmpC (read-out: MIC alone) was 128 µg/mL; with E. coli ESBL4 CTX-M-15 (ESBL4CTXM15, read-out: MIC alone) it was > 128 µg/mL.
In the case of `N[C@H]1CC(CC(=O)N[C@H]2Cc3cccc(C(=O)O)c3OB2O)C[C@@H]1N` [Example 37], the MIC was 8 to 32 µg/mL in the assay with K.P. A-1797 KPC-2 VIM-4; < 4 µg/mL with S. aureus MSSA-7 PC-1; < 4 µg/mL in the assay on E. cl 144200 p99 AmpC (setting [1]); < 4 µg/mL with P. aerug. Ps296 VIM-2; < 4 µg/mL with E. coli ESBL4 CTX-M-15 (setting [2]); < 4 µg/mL in the assay with K.P. 156319 KPC-3.
Consider `N[C@H]1CC[C@H](CC(=O)N[C@H]2Cc3cccc(C(=O)O)c3OB2O)CC1` [Example 6, (R)-3-(2-(trans-4-aminocyclohexyl)acetamido)-2-hydroxy-3,4-dihydro-2H-benzol[e][1,2]oxaborinine-8-carboxylic acid], for which the MIC in the assay with K.P. A-1797 KPC-2 VIM-4, in the assay with S. aureus MSSA-7 PC-1, with E. cl 144200 p99 AmpC (setting [1]), in the assay with P. aerug. Ps296 VIM-2, with E. coli ESBL4 CTX-M-15 (setting [2]) and in the assay with K.P. 156319 KPC-3 was < 4 µg/mL each time.
In the case of `O=C(C[C@H]1CC[C@H](NCCNC2CCCC2)CC1)N[C@H]1Cc2cccc(C(=O)O)c2OB1O` [Example 73, (R)-3-(2-(trans-4-(2-(cyclopentylamino)ethylamino)cyclohexyl)acetamido)-2-hydroxy-3,4-dihydro-2H-benzo[e][1,2]oxaborinine-8-carboxylic acid], the MIC in the assay on K.P. A-1797 KPC-2 VIM-4, with S. aureus MSSA-7 PC-1, in the assay with E. cl 144200 p99 AmpC (setting [1]), in the assay with P. aerug. Ps296 VIM-2, with E. coli ESBL4 CTX-M-15 (setting [2]) and in the assay with K.P. 156319 KPC-3 was < 4 µg/mL each time.
For `N[C@H]1CC[C@H](NCC(=O)N[C@H]2Cc3cccc(C(=O)O)c3OB2O)CC1` [Example 45, 3-[2-(4-Amino-cyclohexylamino)-acetylamino]-2-hydroxy-3,4-dihydro-2H-benzo[e][1,2]oxaborinine-8-carboxylic acid], the MIC is 8 to 32 µg/mL in the assay with K.P. A-1797 KPC-2 VIM-4; < 4 µg/mL with S. aureus MSSA-7 PC-1; < 4 µg/mL in the assay on E. cl 144200 p99 AmpC (setting [1]); 8 to 32 µg/mL in the assay on P. aerug. Ps296 VIM-2; < 4 µg/mL in the assay on E. coli ESBL4 CTX-M-15 (setting [2]); < 4 µg/mL in the assay with K.P. 156319 KPC-3.
In the case of `NCC1CCC(=CC(=O)N[C@H]2Cc3cccc(C(=O)O)c3OB2O)CC1` (stereo partly drawn) [Example 11, (3R)-3-(2-(4-(aminomethyl)cyclohexylidene)acetamido)-2-hydroxy-3,4-dihydro-2H-benzo[e][1,2]oxaborinine-8-carboxylic acid], the MIC in the assay with K.P. A-1797 KPC-2 VIM-4 is 8 to 32 µg/mL; in the assay with E. cl 144200 p99 AmpC (setting [1]) it was < 4 µg/mL; in the assay with P. aerug. Ps296 VIM-2, 8 to 32 µg/mL; in the assay with E. coli ESBL4 CTX-M-15 (setting [2]), < 4 µg/mL; with K.P. 156319 KPC-3 it was < 4 µg/mL.
As to `NCC1CCC(CC(=O)N[C@H]2Cc3cccc(C(=O)O)c3OB2O)(C[N+](=O)[O-])CC1` (stereo partly drawn) [Example 12, (R)-3-(2-(4-(aminomethyl)-1-(nitromethyl)cyclohexyl)acetamido)-2-hydroxy-3,4-dihydro-2H-benzo[e][1,2]oxaborinine-8-carboxylic acid], the MIC with K.P. A-1797 KPC-2 VIM-4 is > 32 µg/mL; with E. cl 144200 p99 AmpC (setting [1]), < 4 µg/mL; with P. aerug. Ps296 VIM-2, 8 to 32 µg/mL; in the assay with E. coli ESBL4 CTX-M-15 (setting [2]), < 4 µg/mL; in the assay with K.P. 156319 KPC-3 it was 8 to 32 µg/mL.
